Tests used:
[1] = bioavailability after particle size reduction; type: in vivo
Protocol: (§1) Unfortunately, (2R)-2-[[(4-chlorophenyl)sulfonyl][[2-fluoro-4-(1,2,4-oxadiazol-3-yl)phenyl]methyl]amino]-5,5,5-trifluoropentanamide has poor aqueous solubility that is often characterized as <1 ug/mL at about room temperature. […] Thus, it now appears that in order to provide optimal exposure of the API, an amorphous (non-crystalline) form of the active compound should be provided.

aqueous solubility = type: physicochemical; settings: aqueous medium; at about room temperature
Protocol: as §1

[2] = solubility of the compound in PVP-VA; type: physicochemical; settings: at a temperature of about 100° C.
Protocol: In order to prepare the compositions hereinabove described, various preparation means available to the skilled artisan may be utilized. It is preferred that the compositions containing the active compound and PVP-VA be prepared by the methods of hot-melt extrusion or spray-drying, with hot-melt extrusion being more preferred. A processing temperature of about 150-160° C. is preferred for hot-melt extrusion processing of the active compound using apparatus available in the art.

improvement in bioavailability by particle size reduction [1]: no appreciable improvement
solubility (aqueous solubility): < 1 µg/mL
soluble in PVP-VA [2]: less than 5%
SMILES: NC(=O)[C@@H](CCC(F)(F)F)N(Cc1ccc(-c2ncon2)cc1F)S(=O)(=O)c1ccc(Cl)cc1 [(2R)-2-[[(4-chlorophenyl)sulfonyl][[2-fluoro-4-(1,2,4-oxadiazol-3-yl)phenyl]methyl]amino]-5,5,5-trifluoropentanamide]

Reference: patent US20100261768A1, “Bioavailable Compositions of Amorphous Alpha-(N-Sulfonamido)Acetamide Compound” (Bristol-Myers Squibb Company, priority 2009, published 2010)
